Assay [1] has as its target T1, Avi-KRAS G12V (1-169) GppNHp/RAF1 RBD-3xFLAG (52-151) (Homo sapiens, UniProt P01116, G12V).
T1 construct: Avi-KRAS G12V (1-169)
Kind of assay: Raf1-KRAS G12V-GppNHP disruption HTRF assay (Biological Example 1). It counts as binding. The following applies: KRAS G12V, GppNHp-loaded; Table 11. The method, then:
(§1) A protein:protein interaction (PPI) Homogeneous Time Resolved Fluorescence (HTRF) assay was used to determine the effectiveness of compounds of the present disclosure in disrupting KRAS protein and effector RAF1 binding.
(§2) The assay buffer included: 50 mM Tris pH 7.5, 100 mM NaCl, 5 mM MgCl2, 0.1% BSA, 0.01% Tween, and 10% DMSO. The bead buffer included: 50 mM Tris pH 7.5, and 0.01% Tween 20. Assay volume of 20 μL was used in a 384 well plate-low volume format.
(§3) The HTRF assay employed the following protocol:
(§4) Protein mix was prepared in assay buffer, and dispensed on plates, 10 μL per well, then incubated for 1 h at room temperature, with 700 rpm shaking, Reagents mix was prepared and dispensed on plates, 10 μL per well, then incubated for 1 h at room temperature, with 700 rpm shaking.
(§5) Data was reported as percentage of activity, with DMSO as 100%. Data was plotted and analyzed using Prism 8.

For assay [2], the target named is T2, Avi-KRAS WT (1-169) GppNHp/RAF1 RBD-3xFLAG (52-151) (Homo sapiens, UniProt P01116).
T2 construct: Avi-KRAS WT (1-169)
T2 sequence (P01116 1-169 isoform P01116-2): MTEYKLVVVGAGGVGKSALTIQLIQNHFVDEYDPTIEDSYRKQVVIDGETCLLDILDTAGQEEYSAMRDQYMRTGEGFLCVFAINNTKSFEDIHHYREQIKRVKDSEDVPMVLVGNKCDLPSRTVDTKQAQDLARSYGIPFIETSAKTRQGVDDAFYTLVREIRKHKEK
In words: Raf1-KRAS WT-GppNHP disruption HTRF assay (Biological Example 1). It counts as binding. The following applies: KRAS WT, GppNHp-loaded; Table 11. How it is done: as §1, §2, §3, §4, §5

The target of assay [3] is T3, Avi-KRAS G12D (1-169) GppNHp/RAF1 RBD-3xFLAG (52-151) (Homo sapiens, UniProt P01116, G12D).
T3 construct: Avi-KRAS G12D (1-169)
T3 sequence (P01116 1-169 isoform P01116-2 G12D): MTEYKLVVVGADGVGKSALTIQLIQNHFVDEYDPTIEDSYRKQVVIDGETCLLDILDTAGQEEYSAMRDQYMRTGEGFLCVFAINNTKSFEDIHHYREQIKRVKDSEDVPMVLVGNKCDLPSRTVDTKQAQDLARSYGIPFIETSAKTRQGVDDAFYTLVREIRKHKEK
Kind of assay: Raf1-KRAS G12D-GppNHP disruption HTRF assay (Biological Example 1). It counts as binding. The following applies: KRAS G12D, GppNHp-loaded. How it is done:
as §1, §2, §3, §4, §5
A general note: In TR-FRET formats the signal depends on donor and acceptor labels being close together.

Assay [4] has as its system GP2d cells (KRAS G12D). Kind of assay: Cell-based pERK HTRF assay in GP2d cell (Biological Example 2). As to conditions: GP2d (KRAS G12D) cells. The method, then:
A pERK assay (Perkin Elmer) was used to determine the effectiveness of compounds in disrupting KRAS G12D protein/effector signaling in cells.
On Day 1, cells (GP2d) were seeded into 96-well plates at 3×10^4 cells/well in 80 μL complete growth media (DMEM, 10% FBS).
(§6) On Day 2, cells were treated with compounds at 0.25% DMSO. The source plate was created with compounds diluted in media at 5-fold the final assay concentration. The compounds were run in a 9-point concentration curve starting at 1 μM or in a 9-point concentration curve starting at 100 nM, with a half-log dilution between concentrations. Twenty μL was transferred onto the cell plates (final volume in wells was 100 μL). Plates were harvested after 60 min incubation by aspirating media and adding kit-supplied 1x supplemented lysis buffer to all wells (50 μL per well). Plates were then placed on a plate shaker and incubated at 850 rpm for an additional 30 min.
Antibody mixture solution was prepared by diluting aliquoted d2 and Eu Cryptate antibodies 1:20 in kit supplied detection buffer, and mixing the diluted antibodies solutions (1:1 v:v).
Samples were homogenized by pipetting up and down and then transferred (16 μL of cell lysates) from the 96-well cell culture plate to two wells of the HTRF 384-well detection plate containing the antibody solution. Plates were centrifuged (524 g for 1 min) and allowed to incubate between 4 and 24 h at room temperature. Maximum signal is reached after 4 h incubation time and remains stable over a period of 24 hours. Therefore, readings can be made between 4 and 24 h of incubation. Plates were centrifuged again (524 g for Imin), then analyzed on the EnVision plate reader using the following settings: Excitation 320 nm, Bandwidth 75 nm; Emission 615 nm, Bandwidth 85 nm; Gain 100%; Flashes 100; Lag 60 μs.

Assay [5] concerns SW620 cells (KRAS G12V). Kind of assay: Cell-based pERK HTRF assay in SW620 cell (Biological Example 4). The method, then: A pERK assay (Perkin Elmer) was used to determine the effectiveness of compounds in disrupting KRAS G12V protein/effector signaling in cells.
On Day 1, cells (SW620) were seeded into 96-well plates at 3×10^4 cells/well in 80 μL complete growth media (RPMI, 10% FBS).
as §6, with “μM,” for “μM or in a 9-point concentration curve starting at 100 nM,”, “4 h” for “60 min”
Antibody mixture solution was prepared by diluting aliquoted d2 and Eu Cryptate antibodies 1:20 in kit supplied detection buffer and mixing the diluted antibodies solutions (1:1 v:v).
Samples were homogenized by pipetting up and down and then transferred (16 μL of cell lysates) from the 96-well cell culture plate to two wells of the HTRF 384-well detection plate containing the antibody solution. Plates were centrifuged (524 g for Imin) and allowed to incubate between 4 and 24 h at room temperature. […] Plates were centrifuged again (524 g for 1 min), then analyzed on the En Vision plate reader using the following settings: Excitation 320 nm, Bandwidth 75 nm; Emission 615 nm, Bandwidth 85 nm; Gain 100%; Flashes 100; Lag 60 μs.

Setting [6] is: SW620 (KRAS G12V) cells, pERK HTRF, class symbols.

Molecules are shown by their SMILES. pIC50: −log10 of the molar value.

The values below come from patent US20260042764A1, “COMPOSITIONS AND METHODS FOR INHIBITION OF KRAS” (TheRas, Inc., priority 2022, published 2026).

The pIC50 is the negative decadic logarithm of the IC50, by convention in mol/L. Low readings indicate a large IC50, high ones a small IC50.

T1 sequence (P01116 1-169 isoform P01116-2 G12V): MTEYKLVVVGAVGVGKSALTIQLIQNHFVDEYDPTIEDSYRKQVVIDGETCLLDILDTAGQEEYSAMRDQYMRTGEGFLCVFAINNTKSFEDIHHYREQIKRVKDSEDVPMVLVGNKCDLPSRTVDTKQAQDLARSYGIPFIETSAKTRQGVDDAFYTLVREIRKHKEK

As to `CN(c1nc(OCC23CCCN2CCC3)nc2c(F)c(-c3ccc(F)c4sc(N)nc34)c(C(F)(F)F)cc12)[C@H]1C[C@H](CO)C1` (atropisomer, axis not shown) [Compound 1], the pIC50 is below 5.00 in assay [1], 5.00 to 6.00 in assay [2] and 5.00 to 6.00 in assay [3] (Table 11).
For the compound `CN(c1nc(OCC23CCCN2CCC3)nc2c(F)c(-c3ccc(F)c4sc(N)nc34)c(C(F)(F)F)cc12)[C@H]1C[C@@H](O)C1` (atropisomer, axis not shown) [Compound 2], the figures for the pIC50 in assay [1], in assay [2] and in assay [3] (Table 11) were 5.00 to 6.00, 6.00 to 7.00 and 6.00 to 7.00, respectively.
As to `CN(c1nc(OCC23CCCN2CCC3)nc2c(F)c(-c3ccc(F)c4sc(N)nc34)c(C(F)(F)F)cc12)[C@H]1C[C@H](O)C1` (atropisomer, axis not shown) [Compound 3], the pIC50 in assay [1], in assay [2] and in assay [3] (Table 11) was 5.00 to 6.00 in each case.
On to `CCN(c1nc(OCC23CCCN2CCC3)nc2c(F)c(-c3ccc(F)c4sc(N)nc34)c(C(F)(F)F)cc12)[C@H]1C[C@@H](O)C1` (atropisomer, axis not shown) [Compound 7], for which the negative logarithm of the IC50 (pIC50) in assay [1], in assay [2] and in assay [3] (Table 11) was 5.00 to 6.00 each time.
With `Nc1nc2c(-c3c(C(F)(F)F)cc4c(N[C@H]5C[C@@H](O)C5)nc(OCC56CCCN5CCC6)nc4c3F)ccc(F)c2s1` (atropisomer, axis not shown) [Compound 9], the negative-log IC50 (pIC50) in assay [1] was below 5.00; in assay [2] it was 5.00 to 6.00; in assay [3] (Table 11), 5.00 to 6.00.
Take `CN1C[C@H](F)C[C@H]1COc1nc(N(C)[C@H]2C[C@@H](O)C2)c2cc(C(F)(F)F)c(-c3ccc(F)c4sc(N)nc34)c(F)c2n1` (atropisomer, axis not shown) [Compound 12]: the pIC50 is below 5.00 in assay [1], 5.00 to 6.00 in assay [2] and below 5.00 in assay [3] (Table 11).
Regarding `CO[C@H]1CN2CCC[C@@]2(COc2nc(N(C)[C@H]3C[C@@H](O)C3)c3cc(C(F)(F)F)c(-c4ccc(F)c5sc(N)nc45)c(F)c3n2)C1` (atropisomer, axis not shown) [Compound 13], the pIC50 in assay [1] was 5.00 to 6.00; in assay [2] it was 6.00 to 7.00; in assay [3] (Table 11), 6.00 to 7.00.
Turning to `CO[C@H]1CN2CCC[C@]2(COc2nc(N(C)[C@H]3C[C@@H](O)C3)c3cc(C(F)(F)F)c(-c4ccc(F)c5sc(N)nc45)c(F)c3n2)C1` (atropisomer, axis not shown) [Compound 14], the negative-log IC50 (pIC50) was 5.00 to 6.00 in assay [1], 6.00 to 7.00 in assay [2] and 5.00 to 6.00 in assay [3] (Table 11).
For the compound `CN(c1nc(OC[C@@]23CCCN2C[C@H](F)C3)nc2c(F)c(-c3ccc(F)c4sc(N)c(C#N)c34)c(C(F)(F)F)cc12)[C@@H]1CCN(C(=O)CC#N)C1` (atropisomer, axis not shown) [Compound 102], the pIC50 in assay [4] (pERK HTRF) is above 7.00; in assay [3] (Table 11), 6.00 to 7.00.
In the case of `CCN(c1nc(OC[C@@]23CCCN2C[C@H](F)C3)nc2c(F)c(-c3ccc(F)c4sc(N)c(C#N)c34)c(C(F)(F)F)cc12)[C@H]1C[C@H](C)N(C(=O)[C@@H](C)OC)C1` (atropisomer, axis not shown) [Compound 763], the negative-log IC50 (pIC50) was above 7.00 in assay [5] (setting [6]); above 7.00 in assay [4] (pERK HTRF, class symbols); 6.00 to 7.00 in assay [3] (class symbols).
`CN(c1nc(OCC23CCCN2CCC3)nc2c(F)c(-c3ccc(F)c4sc(N)nc34)c(C(F)(F)F)cc12)C1CC(O)C12CCCC2` (single isomer, unassigned) [Compound 11] had a pIC50 in assay [3] (Table 11) below 5.00.
`CN(c1nc(OCC23CCCN2CCC3)nc2c(F)c(-c3ccc(F)c4sc(N)nc34)c(C(F)(F)F)cc12)C1CC(O)C1` (stereo not drawn) [Compound 2]: in assay [4] (GP2d, pERK HTRF), the negative logarithm of the IC50 (pIC50) was below 6.00.
The same measure, in the same setting: next, `CN(c1nc(OC[C@@]23CCCN2C[C@H](F)C3)nc2c(F)c(-c3ccc(F)c4sc(N)nc34)c(C(F)(F)F)cc12)C1CC(O)C1` (stereo partly drawn) [Compound 8]: 6.00 to 7.00; `CN(c1nc(OC[C@@H]2C[C@@H](F)CN2C)nc2c(F)c(-c3ccc(F)c4sc(N)nc34)c(C(F)(F)F)cc12)C1CC(O)C1` (stereo partly drawn) [Compound 12]: below 6.00.
On the same count and under the same terms, to `CO[C@H]1CN2CCC[C@@]2(COc2nc(N(C)C3CC(O)C3)c3cc(C(F)(F)F)c(-c4ccc(F)c5sc(N)nc45)c(F)c3n2)C1` (stereo partly drawn) [Compound 13] belongs below 6.00; to `CO[C@H]1CN2CCC[C@]2(COc2nc(N(C)C3CC(O)C3)c3cc(C(F)(F)F)c(-c4ccc(F)c5sc(N)nc45)c(F)c3n2)C1` (stereo partly drawn) [Compound 14], below 6.00.
`CN(c1nc(OCC2(CN3CCOCC3)CC2)nc2c(F)c(-c3ccc(F)c4sc(N)nc34)c(C(F)(F)F)cc12)C1CC(O)C1` (stereo not drawn) [Compound 16]: the pIC50 in assay [4] (GP2d, pERK HTRF) was below 6.00.
In turn, `CO[C@@H]1C[C@@H](COc2nc(N(C)C3CC(O)C3)c3cc(C(F)(F)F)c(-c4ccc(F)c5sc(N)nc45)c(F)c3n2)N(C)C1` (stereo partly drawn) [Compound 17] had a pIC50 in assay [4] (GP2d, pERK HTRF) below 6.00.
In the case of `CCN(CCCO)c1nc(OC[C@@]23CCCN2C[C@H](F)C3)nc2c(F)c(-c3ccc(F)c4sc(N)c(C#N)c34)c(C(F)(F)F)cc12` [Compound 75], the values for the pIC50 in assay [4] (pERK HTRF) and in assay [3] (Table 11) were above 7.00 and 6.00 to 7.00, respectively.
Take `CN(c1nc(OCC2(CN3CCOCC3)CC2)nc2c(F)c(-c3ccc(F)c4sc(N)c(C#N)c34)c(C(F)(F)F)cc12)C1CC(O)C1` (stereo not drawn) [Compound 122]: the pIC50 in assay [4] (GP2d, pERK HTRF) was above 7.00.
Regarding `CN(c1nc(OC[C@@]23CCCN2C[C@H](F)C3)nc2c(F)c(-c3ccc(F)c4sc(N)c(C#N)c34)c(C(F)(F)F)cc12)C1CC(F)C1` (stereo partly drawn) [Compound 160], the pIC50 in assay [4] (GP2d, pERK HTRF) is above 7.00.
On to `CN(c1nc(OC[C@@]23CCCN2C[C@H](F)C3)nc2c(F)c(-c3ccc(F)c4sc(N)c(C#N)c34)c(C(F)(F)F)cc12)C1(CC#N)CC(O)C1` (stereo partly drawn) [Compound 249], for which the pIC50 in assay [5] (SW620 (KRAS G12V) cells, pERK HTRF) was 6.00 to 7.00; in assay [4] (GP2d, pERK HTRF) it was 6.00 to 7.00.
On to `CCN(c1nc(OC[C@@]23CCCN2C[C@H](F)C3)nc2c(F)c(-c3ccc(F)c4sc(N)c(C#N)c34)c(C(F)(F)F)cc12)[C@H]1CCN(C(=O)OC2CC(OC)C2)C1` (stereo partly drawn) [Compound 792], for which the pIC50 in assay [5] (setting [6]) is above 7.00; in assay [4] (pERK HTRF, class symbols), above 7.00; in assay [3] (class symbols), above 7.00.
On to `CCN(c1nc(OC[C@@]23CCCN2C[C@H](F)C3)nc2c(F)c(-c3ccc(F)c4sc(N)c(C#N)c34)c(C(F)(F)F)cc12)C1CC(C(=O)N(C)C)C1` (stereo partly drawn) [Compound 950], for which the pIC50 was above 7.00 in assay [5] (Homo sapiens, SW-620, SW620 (KRAS G12V) cells) and above 7.00 in assay [4] (GP2d).
